The values below come from patent US20230047825A1, “ANTIMICROBIAL PEPTIDES” (priority 2019, published 2023).

Values after ≈ are worked out from the molar mass of the structure shown. Where a SMILES comes first, the peptide text is derived from it.

The subject of experiment [1] is Staphylococcus aureus VRS-2 (VanA, VRSA). As to the kind of experiment: microbe, parasite or virus in culture. The conditions noted are these: VRS-2 (VanA). On the procedure:
The S. aureus strains ATCC 29213, ATCC 19636, ATCC 33591 (MRSA), BAA-1556 (MRSA USA 300) were obtained from the American Type Culture Collection (ATCC). […] The species identity was confirmed with 16S rRNA analysis.
(§1) Two broth mediums were used, Mueller Hinton Broth and RPMI 1640+5% fetal bovine serum. Test substances were evaluated in 11-point titrations and performed in duplicate.
(§2) The direct colony suspension method was used to prepare inoculated broth. Isolated colonies were taken from an 18-24 h culture plate. Optical density measurements (OD620nm) were used to estimate the bacterial density. […] The stock solutions were diluted by 2-fold serial titrations with their respective vehicles for a total of 11 concentrations.
(§3) A 4 μL aliquot of each dilution was added to 196 μL of broth medium seeded with the organism in wells of a sterilized 96 well polypropylene plate (Nunc™ 249949) using aluminum foil as cover. The final bacterial count was 2 to 8×10^5 CFU/mL. […] The final test article concentration range was 32 to 0.0313 μg/mL.
(§4) Each test substance dilution was evaluated in duplicate on one test occasion. […] Plates were incubated at 35-37° C. for 18 h. The test plates were visually examined and each well was visually scored for growth or complete inhibition of growth. The MIC value was recorded.

For experiment [2], the system named is five S. aureus strains. The conditions noted are these: Mueller Hinton Broth. Here is the method:
as §1, §2, §3, §4

Compound `CC(C)C[C@@H](NC(=O)[C@@H](Cc1ccc(O)cc1)NC(=O)[C@@H](Cc1c[nH]cn1)NC(=O)[C@H](NC(=O)[C@@H](CC(C)C)NC(=O)[C@@H](C)NC(=O)[C@@H](C)NC(=O)[C@@H](CCCNC(=N)N)NC(=O)CNC(=O)[C@H](NC(=O)[C@@H](Cc1c[nH]cn1)NC(=O)[C@@H](CCCNC(=N)N)NC(=O)CNC(=O)[C@H](NC(=O)[C@@H](Cc1c[nH]cn1)NC(=O)[C@@H](C)NC(=O)[C@@H](C)NC(=O)[C@@H](CCCNC(=N)N)NC(=O)[C@@H](CCCNC(=N)N)NC(=O)[C@@H](Cc1ccccc1)NC(=O)[C@@H](Cc1ccccc1)NC(=O)[C@@H](CO)NC(=O)CNC(=O)[C@@H](Cc1c[nH]c2ccccc12)NC(=O)CN)C(C)C)C(C)C)[C@H](C)O)C(N)=O` [D-pleurocidin-KR] (HELM PEPTIDE1{G.[dW].G.[dS].[dF].[dF].[dR].[dR].[dA].[dA].[dH].[dV].G.[dR].[dH].[dV].G.[dR].[dA].[dA].[dL].[dT].[dH].[dY].[dL].[am]}$$$$V2.0; N-terminus assumed) displayed an MIC in experiment [1] of 2 µg/mL (≈ 0.709 µM). In experiment [2], the “MIC against the five tested S. aureus strains” value was determined as 2 µg/mL (≈ 0.709 µM).
